Laboratory results as given in PMC6858373 (Scientific Reports, 2019).
Where two headings read alike, the source gives them in different places.

Tests used:
[1] = target: full-length P. pyralis luciferase (Photinus pyralis, UniProt P08659, K549A/L550V/N119G/N50D/S548I); format: cell-based
[2] = target: T1, FGF14:Nav1.6 C-tail complex (Homo sapiens, UniProt Q92915+Q9UQD0); experiment: Split-luciferase complementation assay (LCA) in Clone V double stable HEK293 cells; format: cell-based; conditions: for Split Luciferase Assay % Lum Set 1 / Split Luciferase Assay Z-score Set 1: biological replicate Set 1; for Split Luciferase Assay % Lum Set 1 / Split Luciferase Assay %Lum Set 2: normalized to on-plate 0.3% DMSO controls (n=16 per plate); for Split Luciferase Assay %Lum Set 2 / Split Luciferase Assay Z-score Set 2: biological replicate Set 2; for Split Luciferase Assay Z-score Set 1 / Split Luciferase Assay Z-score Set 2: normalized to on-plate 0.3% DMSO controls; for Split Luciferase Assay %Lum Avg: average of Set 1 and Set 2, normalized to 0.3% DMSO controls
T1 construct: polymerase chain reaction (PCR) amplification of the FGF14 open reading frame (nt 1–855); C-terminal fragment of Nav1.6 (amino acids 1763–1976) fused with CD4ΔC-tail (amino acids 1–395); expressed in transfected cells

[3] = CC_NCI screening, full-length luciferase counter-screen luminescence, normalized to on-plate 0.3% DMSO controls
[4] = CC_NCI screening, full-length luciferase counter-screen, normalized to on-plate 0.3% DMSO controls
[5] = CC_NCI screening, LCA luminescence
[6] = CC_NCI screening, normalized to on-plate 0.3% DMSO controls

Chain of full-length P. pyralis luciferase (P08659 whole entry N50D/N119G/S548I/K549A/L550V, looked up): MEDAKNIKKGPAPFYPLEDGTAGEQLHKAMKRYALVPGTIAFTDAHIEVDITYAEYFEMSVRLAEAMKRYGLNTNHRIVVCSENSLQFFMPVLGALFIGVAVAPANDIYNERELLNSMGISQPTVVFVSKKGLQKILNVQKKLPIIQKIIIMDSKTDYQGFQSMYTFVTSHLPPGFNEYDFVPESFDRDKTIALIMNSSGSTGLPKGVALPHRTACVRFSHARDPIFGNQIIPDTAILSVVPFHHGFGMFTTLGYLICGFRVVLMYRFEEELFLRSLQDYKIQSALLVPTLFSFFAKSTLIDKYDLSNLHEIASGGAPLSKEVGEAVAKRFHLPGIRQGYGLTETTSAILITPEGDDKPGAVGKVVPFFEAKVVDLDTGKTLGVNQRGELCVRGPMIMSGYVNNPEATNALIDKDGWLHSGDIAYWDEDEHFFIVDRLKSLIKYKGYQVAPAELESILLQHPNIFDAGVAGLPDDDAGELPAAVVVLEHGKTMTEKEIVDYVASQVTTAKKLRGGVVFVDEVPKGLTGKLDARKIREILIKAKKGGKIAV
T1 sequence (Q92915 1-252 isoform Q92915-2): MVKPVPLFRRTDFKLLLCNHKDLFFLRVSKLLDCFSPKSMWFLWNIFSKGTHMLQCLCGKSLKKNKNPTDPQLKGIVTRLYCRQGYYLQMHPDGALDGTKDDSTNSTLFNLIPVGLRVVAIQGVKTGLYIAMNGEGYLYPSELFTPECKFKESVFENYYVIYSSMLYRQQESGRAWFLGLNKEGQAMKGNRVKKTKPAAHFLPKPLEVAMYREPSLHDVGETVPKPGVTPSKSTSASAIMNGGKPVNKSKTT
T1 sequence (Q9UQD0 1763-1976 limits assumed): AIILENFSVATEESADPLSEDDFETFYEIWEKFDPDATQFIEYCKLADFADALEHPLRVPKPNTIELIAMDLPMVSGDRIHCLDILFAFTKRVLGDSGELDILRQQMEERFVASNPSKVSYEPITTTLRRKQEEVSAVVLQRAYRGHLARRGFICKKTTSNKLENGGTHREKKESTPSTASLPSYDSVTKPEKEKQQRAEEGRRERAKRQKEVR

Row | SMILES | Luciferase Assay % Lum [1, 3] [%] | Luciferase Assay Z-score [1, 4] | Toxicity Assay % Fluor (Clone V cells) [%] | Toxicity Assay Z-score (Clone V cells) | Split Luciferase Assay % Lum Set 1 [2, 5] [%] | Split Luciferase Assay %Lum Set 2 [2, 5] [%] | Split Luciferase Assay Z-score Set 1 ([2]; CC_NCI screening, LCA) | Split Luciferase Assay Z-score Set 2 ([2]; CC_NCI screening, LCA) | Split Luciferase Assay %Lum Avg ([2]; CC_NCI screening) [%] | Toxicity Assay % Fluor (Clone V cells; human, 16 h, 30 µM) [%] | Toxicity Assay Z-score (Clone V cells; human, 16 h, 30 µM) | other results
1 | Cc1cccc(Nc2nc(-c3ccncc3)cs2)c1 [STF-62247] | 83.43 | -2.12 | 98.46 | -0.22 | 23.16 | 33.29 | -6.21 | -5.43 | 28.22 |  |  | 
2 | CN(C)S(=O)(=O)c1ccc2c(c1)/C(=C/c1cc3c([nH]1)CCCC3)C(=O)N2 [SU 6656] | 101.36 | 0.17 |  |  | 128.60 | 106.11 | 2.31 | 0.50 | 117.36 | 105.95 | 0.83 | 
3 | Cc1[nH]c(/C=C2\C(=O)Nc3ccc(S(=O)(=O)N(C)c4cccc(Cl)c4)cc32)c(C)c1C(=O)N1CCN(C)CC1 [SU 11274] | 85.15 | -1.90 |  |  | 81.86 | 81.14 | -1.47 | -1.53 | 81.50 | 97.70 | -0.32 | 
4 | CCN(CC)CCNC(=O)c1c(C)[nH]c(/C=C2\C(=O)Nc3ccc(F)cc32)c1C [SUNITINIB] |  |  | 93.10 |  | 80.77 | 74.90 | -1.55 | -2.04 | 77.84 |  |  | Luciferase Assay % Lum [1]: 90.75%; Luciferase Assay Z-score [1]: -1.18
5 | CN[C@@H]1C[C@H]2O[C@@](C)([C@@H]1OC)n1c3ccccc3c3c4c(c5c6ccccc6n2c5c31)C(=O)NC4 [Staurosporine, reference compound] | 101.58 | 0.20 |  |  | 23.16 | 14.56 | -6.21 | -6.95 | 18.86 |  |  | Toxicity Assay % Fluor (Clone V cells; human): 82.83%; Toxicity Assay Z-score (Clone V cells; human): -2.40; Z-score (LCA primary screening) ([2]; 30 µM, 384-well, average of primary screening (n = 2), vs on-plate 0.3% DMSO): −6.58; IMin (% Luminescence) ([2]; antagonists, Clone V cells, 384-well, normalized to DMSO): 18.86 % Luminescence
6 | CO[C@H]1C[C@@H]2CC[C@@H](C)[C@@](O)(O2)C(=O)C(=O)N2CCCC[C@H]2C(=O)O[C@H]([C@H](C)C[C@@H]2CC[C@@H](OC(=O)C(C)(CO)CO)[C@H](OC)C2)CC(=O)[C@H](C)/C=C(\C)[C@@H](O)[C@@H](OC)C(=O)[C@H](C)C[C@H](C)/C=C/C=C/C=C/1C [TEMSIROLIMUS] | 65.73 | -4.39 |  |  | 86.21 | 83.22 | -1.11 | -1.36 | 84.72 | 87.05 | -1.81 | 
7 | Cc1cc(C(C)Nc2ccccc2)c2nc(N3CCOCC3)cc(=O)n2c1 (stereo not drawn) [TGX 221] |  |  |  |  |  |  |  |  |  |  |  | Luciferase Assay % Lum (full-length luciferase counter-screen) [1, 6]: 101.89%; Luciferase Assay Z-score (full-length luciferase counter-screen) [1, 6]: 0.24; Toxicity Assay Z-score (CTB cell viability) (Clone V cells): 2.19; Split Luciferase Assay Z-score Set 1 ([2]; CC_NCI screening): 0.82; Split Luciferase Assay % Lum Set 1 ([2]; CC_NCI screening): 110.12%; Split Luciferase Assay Z-score Set 2 ([2]; CC_NCI screening): 1.94; Split Luciferase Assay %Lum Set 2 ([2]; CC_NCI screening): 123.80%; Split Luciferase Assay %Lum Avg [2]: 116.96%
8 | CC(/C=C/C(=O)NO)=C\[C@@H](C)C(=O)c1ccc(N(C)C)cc1 [TRICHOSTATIN A] | 33.58 | -8.51 | 97.32 | -0.37 | 147.09 | 94.67 | 3.81 | -0.43 | 120.88 |  |  | 
9 | CO[C@H]1C[C@@H]2CC[C@@H](C)[C@@](O)(O2)C(=O)C(=O)N2CCCC[C@H]2C(=O)O[C@H]([C@H](C)C[C@@H]2CC[C@@H](OC(=O)C(C)(CO)CO)[C@H](OC)C2)CC(=O)[C@H](C)/C=C(\C)[C@@H](O)[C@@H](OC)C(=O)[C@H](C)C[C@H](C)/C=C/C=C/C=C/1C [Temsirolimus] | 68.61 | -4.02 | 93.12 | -0.96 | 50.33 | 62.42 | -4.01 | -3.06 | 56.38 |  |  | 
10 | Nc1nc2nc[nH]c2c(=S)[nH]1 [Thioguanine] | 92.95 | -0.90 |  |  | 93.82 | 110.27 | -0.50 | 0.84 | 102.05 | 96.19 | -0.53 | 
11 | CC(=O)Nc1cccc(-n2c(=O)n(C3CC3)c(=O)c3c(Nc4ccc(I)cc4F)n(C)c(=O)c(C)c32)c1 [Trametinib] | 95.81 | -0.54 |  |  | 101.43 | 79.06 | 0.12 | -1.70 | 90.25 | 92.79 | -1.01 | 
12 | COc1ccc2c(c1)CC[C@@H]1[C@@H]2CC[C@]2(C)[C@@H](NCCCCCCN3C(=O)C=CC3=O)CC[C@@H]12 [U 73122] | 109.98 | 1.28 | 102.60 | 0.36 | 128.60 | 129.00 | 2.31 | 2.36 | 128.80 |  |  | 
13 | COc1cc2/c(=N/c3ccc(Br)cc3F)nc[nH]c2cc1OCC1CCN(C)CC1 [VANDETANIB] | 102.19 | 0.28 | 85.66 | -2.01 | 85.12 | 88.43 | -1.20 | -0.94 | 86.77 |  |  | 
14 | O=C(CCCCCCC(=O)Nc1ccccc1)NO [VORINOSTAT] |  |  |  |  |  |  |  |  |  |  |  | Luciferase Assay % Lum (full-length luciferase counter-screen) [1, 6]: 84.44%; Luciferase Assay Z-score (full-length luciferase counter-screen) [1, 6]: -1.99; Toxicity Assay % Fluor (CTB cell viability fluorescence) (Clone V cells): 108.87%; Toxicity Assay Z-score (CTB cell viability) (Clone V cells): 1.24; Split Luciferase Assay Z-score Set 1 ([2]; CC_NCI screening): 0.47; Split Luciferase Assay % Lum Set 1 ([2]; CC_NCI screening): 105.78%; Split Luciferase Assay Z-score Set 2 ([2]; CC_NCI screening): -1.96; Split Luciferase Assay %Lum Set 2 ([2]; CC_NCI screening): 75.94%; Split Luciferase Assay %Lum Avg [2]: 90.86%
